Laboratory results taken from patent EP0913089A1, “Synergistic herbicidal composition containing R-imazethapyr and R-imazapyr and method for controlling weeds therewith” (American Cyanamid Company, priority 1997, dated 1999).

Experiments:
Assay in all cases: Greenhouse postemergence weed control, visual rating (Example 1)
Design in all cases: scale not given here
Details in all cases: approx. 3 weeks after treatment
[1] = test system: SETVI; format: in vivo, Setaria viridis, (L) Beauv
Method: (§1) In this evaluation, plants are grown in standard greenhouse soil for 10-14 days until they are at the 2-to 4-leaf stage. Said plants are then sprayed with an aqueous solution of the test compounds which contains 0.25% of a non-ionic surfactant and 1% of a 28-0-0 liquid fertilizer. Each treatment is replicated 3 to 4 times. Approximately 3 weeks after treatment visual ratings are made using the rating scale shown below. The data are averaged and shown on Table I. [table] [table]

[2] = test system: ABUTH; format: in vivo, Abutilon theophrasti, Medic.
Method: as §1

[3] = test system: CHEAL; format: in vivo, Chenopodium album, L.
Method: as §1

[4] = test system: AMBEL; format: in vivo, Ambrosia artemisiifolia, L.
Method: as §1

SMILES: CCc1cnc(C2=N[C@](C)(C(C)C)C(=O)N2)c(C(=O)O)c1 [R-Imazethapyr, R-imazethapyr]
- WEED CONTROL SETVI ([1]; Rate 2.68 g/ha): 4.8
- WEED CONTROL SETVI ([1]; Rate 5.36 g/ha): 4.5
- WEED CONTROL SETVI ([1]; Rate 10.72 g/ha): 5.5
- WEED CONTROL SETVI ([1]; Rate 21.44 g/ha): 6.5
- WEED CONTROL SETVI ([1]; Rate 42.88 g/ha): 7.5
- WEED CONTROL SETVI ([1]; Rate 64.30 g/ha): 9.0
- WEED CONTROL SETVI ([1]; Rate 85.76 g/ha): 9.0
- WEED CONTROL ABUTH ([2]; Rate 2.68 g/ha): 4.8
- WEED CONTROL ABUTH ([2]; Rate 5.36 g/ha): 4.8
- WEED CONTROL ABUTH ([2]; Rate 10.72 g/ha): 4.8
- WEED CONTROL ABUTH ([2]; Rate 21.44 g/ha): 6.8
- WEED CONTROL ABUTH ([2]; Rate 42.88 g/ha): 7.0
- WEED CONTROL ABUTH ([2]; Rate 64.30 g/ha): 9.0
- WEED CONTROL ABUTH ([2]; Rate 85.76 g/ha): 9.0
- WEED CONTROL CHEAL ([3]; Rate 2.68 g/ha): 2.3
- WEED CONTROL CHEAL ([3]; Rate 5.36 g/ha): 3.8
- WEED CONTROL CHEAL ([3]; Rate 10.72 g/ha): 4.0
- WEED CONTROL CHEAL ([3]; Rate 21.44 g/ha): 6.8
- WEED CONTROL CHEAL ([3]; Rate 42.88 g/ha): 7.0
- WEED CONTROL CHEAL ([3]; Rate 64.30 g/ha): 9.0
- WEED CONTROL CHEAL ([3]; Rate 85.76 g/ha): 9.0
- WEED CONTROL AMBEL ([4]; Rate 2.68 g/ha): 3.8
- WEED CONTROL AMBEL ([4]; Rate 5.36 g/ha): 3.5
- WEED CONTROL AMBEL ([4]; Rate 10.72 g/ha): 3.0
- WEED CONTROL AMBEL ([4]; Rate 21.44 g/ha): 4.8
- WEED CONTROL AMBEL ([4]; Rate 42.88 g/ha): 6.5
- WEED CONTROL AMBEL ([4]; Rate 64.30 g/ha): 8.8
- WEED CONTROL AMBEL ([4]; Rate 85.76 g/ha): 9.0

SMILES: CC(C)C1(C)N=C(c2ncccc2C(=O)O)NC1=O (racemic) [Imazapyr]
- WEED CONTROL SETVI ([1]; Rate 2.016 g/ha): 5.3
- WEED CONTROL SETVI ([1]; Rate 4.00 g/ha): 6.8
- WEED CONTROL SETVI ([1]; Rate 8.00 g/ha): 9.0
- WEED CONTROL SETVI ([1]; Rate 16.00 g/ha): 9.0
- WEED CONTROL SETVI ([1]; Rate 32.00 g/ha): 9.0
- WEED CONTROL SETVI ([1]; Rate 48.00 g/ha): 9.0
- WEED CONTROL SETVI ([1]; Rate 64.00 g/ha): 9.0
- WEED CONTROL ABUTH ([2]; Rate 2.016 g/ha): 4.8
- WEED CONTROL ABUTH ([2]; Rate 4.00 g/ha): 6.3
- WEED CONTROL ABUTH ([2]; Rate 8.00 g/ha): 7.5
- WEED CONTROL ABUTH ([2]; Rate 16.00 g/ha): 8.5
- WEED CONTROL ABUTH ([2]; Rate 32.00 g/ha): 9.0
- WEED CONTROL ABUTH ([2]; Rate 48.00 g/ha): 9.0
- WEED CONTROL ABUTH ([2]; Rate 64.00 g/ha): 9.0
- WEED CONTROL CHEAL ([3]; Rate 2.016 g/ha): 6.3
- WEED CONTROL CHEAL ([3]; Rate 4.00 g/ha): 8.0
- WEED CONTROL CHEAL ([3]; Rate 8.00 g/ha): 8.8
- WEED CONTROL CHEAL ([3]; Rate 16.00 g/ha): 9.0
- WEED CONTROL CHEAL ([3]; Rate 32.00 g/ha): 9.0
- WEED CONTROL CHEAL ([3]; Rate 48.00 g/ha): 9.0
- WEED CONTROL CHEAL ([3]; Rate 64.00 g/ha): 9.0
- WEED CONTROL AMBEL ([4]; Rate 2.016 g/ha): 2.5
- WEED CONTROL AMBEL ([4]; Rate 4.00 g/ha): 4.0
- WEED CONTROL AMBEL ([4]; Rate 8.00 g/ha): 5.0
- WEED CONTROL AMBEL ([4]; Rate 16.00 g/ha): 7.0
- WEED CONTROL AMBEL ([4]; Rate 32.00 g/ha): 7.8
- WEED CONTROL AMBEL ([4]; Rate 48.00 g/ha): 8.8
- WEED CONTROL AMBEL ([4]; Rate 64.00 g/ha): 8.8

SMILES: CCc1cnc(C2=NC(C)(C(C)C)C(=O)N2)c(C(=O)O)c1 (racemic) [Imazethapyr]
- WEED CONTROL SETVI ([1]; Rate 4.00 g/ha): 3.5
- WEED CONTROL SETVI ([1]; Rate 8.00 g/ha): 4.5
- WEED CONTROL SETVI ([1]; Rate 16.00 g/ha): 4.3
- WEED CONTROL SETVI ([1]; Rate 32.00 g/ha): 6.0
- WEED CONTROL SETVI ([1]; Rate 64.00 g/ha): 7.5
- WEED CONTROL SETVI ([1]; Rate 96.00 g/ha): 9.0
- WEED CONTROL SETVI ([1]; Rate 128.00 g/ha): 9.0
- WEED CONTROL ABUTH ([2]; Rate 4.00 g/ha): 2.5
- WEED CONTROL ABUTH ([2]; Rate 8.00 g/ha): 3.0
- WEED CONTROL ABUTH ([2]; Rate 16.00 g/ha): 4.0
- WEED CONTROL ABUTH ([2]; Rate 32.00 g/ha): 6.3
- WEED CONTROL ABUTH ([2]; Rate 64.00 g/ha): 6.3
- WEED CONTROL ABUTH ([2]; Rate 96.00 g/ha): 9.0
- WEED CONTROL ABUTH ([2]; Rate 128.00 g/ha): 9.0
- WEED CONTROL CHEAL ([3]; Rate 4.00 g/ha): 2.5
- WEED CONTROL CHEAL ([3]; Rate 8.00 g/ha): 2.3
- WEED CONTROL CHEAL ([3]; Rate 16.00 g/ha): 3.5
- WEED CONTROL CHEAL ([3]; Rate 32.00 g/ha): 7.0
- WEED CONTROL CHEAL ([3]; Rate 64.00 g/ha): 8.0
- WEED CONTROL CHEAL ([3]; Rate 96.00 g/ha): 9.0
- WEED CONTROL CHEAL ([3]; Rate 128.00 g/ha): 9.0
- WEED CONTROL AMBEL ([4]; Rate 4.00 g/ha): 2.5
- WEED CONTROL AMBEL ([4]; Rate 8.00 g/ha): 2.8
- WEED CONTROL AMBEL ([4]; Rate 16.00 g/ha): 4.0
- WEED CONTROL AMBEL ([4]; Rate 32.00 g/ha): 6.0
- WEED CONTROL AMBEL ([4]; Rate 64.00 g/ha): 6.5
- WEED CONTROL AMBEL ([4]; Rate 96.00 g/ha): 7.5
- WEED CONTROL AMBEL ([4]; Rate 128.00 g/ha): 8.8

SMILES: CC(C)[C@@]1(C)N=C(c2ncccc2C(=O)O)NC1=O [R-Imazapyr, R-imazapyr]
- WEED CONTROL SETVI ([1]; Rate 1.34 g/ha): 6.0
- WEED CONTROL SETVI ([1]; Rate 2.68 g/ha): 7.5
- WEED CONTROL SETVI ([1]; Rate 5.36 g/ha): 8.0
- WEED CONTROL SETVI ([1]; Rate 10.72 g/ha): 9.0
- WEED CONTROL SETVI ([1]; Rate 21.44 g/ha): 9.0
- WEED CONTROL SETVI ([1]; Rate 32.16 g/ha): 9.0
- WEED CONTROL SETVI ([1]; Rate 42.88 g/ha): 9.0
- WEED CONTROL ABUTH ([2]; Rate 1.34 g/ha): 4.3
- WEED CONTROL ABUTH ([2]; Rate 2.68 g/ha): 5.8
- WEED CONTROL ABUTH ([2]; Rate 5.36 g/ha): 7.3
- WEED CONTROL ABUTH ([2]; Rate 10.72 g/ha): 8.0
- WEED CONTROL ABUTH ([2]; Rate 21.44 g/ha): 9.0
- WEED CONTROL ABUTH ([2]; Rate 32.16 g/ha): 9.0
- WEED CONTROL ABUTH ([2]; Rate 42.88 g/ha): 9.0
- WEED CONTROL CHEAL ([3]; Rate 1.34 g/ha): 7.3
- WEED CONTROL CHEAL ([3]; Rate 2.68 g/ha): 7.8
- WEED CONTROL CHEAL ([3]; Rate 5.36 g/ha): 8.3
- WEED CONTROL CHEAL ([3]; Rate 10.72 g/ha): 9.0
- WEED CONTROL CHEAL ([3]; Rate 21.44 g/ha): 9.0
- WEED CONTROL CHEAL ([3]; Rate 32.16 g/ha): 9.0
- WEED CONTROL CHEAL ([3]; Rate 42.88 g/ha): 9.0
- WEED CONTROL AMBEL ([4]; Rate 1.34 g/ha): 1.5
- WEED CONTROL AMBEL ([4]; Rate 2.68 g/ha): 4.5
- WEED CONTROL AMBEL ([4]; Rate 5.36 g/ha): 5.0
- WEED CONTROL AMBEL ([4]; Rate 10.72 g/ha): 6.3
- WEED CONTROL AMBEL ([4]; Rate 21.44 g/ha): 7.5
- WEED CONTROL AMBEL ([4]; Rate 32.16 g/ha): 9.0
- WEED CONTROL AMBEL ([4]; Rate 42.88 g/ha): 8.5
